Assay results: patent US6573060B1, “Methods and compositions for targeting DNA metabolic processes using aminoglycoside derivatives” (University of Virginia Patent Foundation, priority 1997, dated 2003)
“Also recorded” adds a separate entry of the source.

Key:
[1] = system: Human PC3 (prostate cancer) cells; assay: Human PC3 subcutaneous tumors in nude, athymic mice, intratumoral injection; type: in vivo
Method: Human PC3 (prostate cancer) cells were implanted subcutaneously in nude, athymic mice. Following tumor development to a size of approximately 200 cubic millimeters, tumors were injected directly with 50 μl of 1.3 mM phosphokanamycin every Monday, Wednesday, and Friday for two weeks.
CRL: CD-lnu/nu Br mice (nude, athymic) were obtained from Charles River Animal Resources Facility. Human PC3 cells were grown in RPMI 1640 media containing 10% serum, 200 μl of this cell culture was diluted 1:1 with Matrigel (Collaborative Biomedical Products) such that the total number of cells after dilution were 2×10^6. The cells were then injected on the underside of the flank and the development of subcutaneous tumor size was monitored by measurement with Vernier calipers.
Therapy with the drugs was started when the tumor size reached 200 mm^3. The drugs were solubilized in PBS (0.35 g NaH2PO4, 1.06 g Na2HPO and 8.5 g in a total volume of 1 L, pH 7.2), pH was adjusted to 7.2 using phosphoric acid and filter sterilized before injection. 50 μl of the drug (1.3 mM phosphokanamycin) was administered by direct injection into the tumor every Monday, Wednesday, and Friday for two weeks. The tumor size was monitored by measurement with Vernier calipers. The mice were euthanized when the tumor size exceeded 1000 mm^3 or when the weight of the mice decreased by more than 15% of their starting weight. The tumor size was calculated using the following formula:
volume=[length×(width)^2]/2

[2] = system: Entamoeba histolytica; assay: Entamoeba histolytica culture growth; type: cell-based; details: 72 h, read-out: concentration that completely kills the cells
Method: Entamoeba histolytica HMl-ISS strain was used for the experiment. The cells were grown in tissue culture medium TYI-S-33 containing trypticase, yeast extract, iron and serum along with 100 units/ml penicillin and […] streptomycin sulfate. 500,000 amoebae were incubated in 2 mls of media. The drugs were added to the required final concentration. The total number of amoebae was counted every 24 hours after the addition of drugs using light microscope. Growth was monitored over a period of 72 hours.

[3] = system: CHO non-K1 cells; assay: DNA replication assay in permeabilized CHO non-K1 cells; type: cell-based; details: phosphokanamycin 100 μM, phosphoneomycin 10 μM (FIG. 7)
Method: CHO non-K1 cells were used for the DNA replication assay. Cells were grown to density of 2×10^7 cells/plate in MEM medium supplemented with fetal calf serum. The cells were in log phase and unsynchronized. The plates were washed three times with cold MEM medium and cells were scraped off the plates into eppendorf tubes. The cells were centrifuged at 2000 rpm for 3 mm at 4° C. From each plate approximately 100 μl of cells were obtained. The cell pellet was resuspended in an equal volume of replication buffer [100 mM HEPES (pH 7.8), 0.2 mM dGTP, 0.2 mM DATP, 0.2 mM dTTP, 0.4 mM GTP, 0.4 mM CTP, 0.4 mM UTP, 8 mM ATP, 20 mM MgCl2, 0.2 mg/ml BSA, 2 mM DTT, 30% glycerol]. The cell suspension (20 μl) was aliquoted to individual tubes. Aminoglycosides and phosphoaminoglycosides were then added to the required final concentration. The cells were permeabilized by the addition of 0.5 μl of 20% NP-40 detergent. To monitor replication, 2 μl of α[^32 P] dCTP (3000-6000 Ci/mmole activity) was added. The cells were incubated at 37° C. for 10 min and the reaction was stopped by addition of 200 μl of stop buffer [50 mM TrisCl (pH 8.0), 10 mM EDTA, 400 mM NaCl, 1% SDS]. The cells were further incubated at 37° C. for 2 hours.
The DNA was sheared by passing 5-10 times through a 23 gauge needle. […] After drying, the radioactivity was measured using a liquid scintillation counter (Beckman).

[4] = system: LNCaP cell line; assay: MTS cell survival assay, LNCaP prostate cancer cells; type: cell-based; details: Homo sapiens, 120 h, 8 wells, 5 days
Method: The effect of phosphoaminoglycosides on tumor cell growth was tested in cell culture inhibition studies. 5000 cells were plated in a total volume of 50 μl in a 96 well titer plate. After 24 hours, 50 μl of media and drugs, to the required final concentration, were added. The plates were incubated at 37° C. for 5 days. On the 5th day, the fraction of surviving cells was estimated using a non-radioactive cell proliferation assay (CellTiter 96 AQueous Cell Proliferation Assay from Promega).
This is a colorimetric assay that determines the number of viable cells. The assay measures the bioreduction of a tetrazolium compound (3-(4,5-dimethylthiazol-2-yl)-5-(3-carboxymethoxyphenyl)-2-(4-sulfophenyl)-2H-tetrazolium, inner salt; MTS), via an electron coupling reagent (phenazine methosulfate; PMS), to formazan, which is soluble in the tissue culture medium. The absorbance of formazan at 490 nm can be measured from the 96 well assay plate without additional processing. The conversion of MTS into the aqueous soluble formazan is accomplished by dehydrogenase enzymes found in metabolically active cells. The quantity of formazan product as measured by the amount of 490 nm absorbance is directly proportional to the number of living cells in culture. […] 20 μl of PMS/MTS solution was added to the cells and the plates were incubated at 37° C. for 2 hours before measuring the absorbance at 490 nm. […]

[5] = system: Leishmania chagasi; assay: Leishmania chagasi culture growth; type: cell-based; details: FIGS. 12A-B
Method: Leishmania chagasi cells were grown in HO-MEM medium to a cell density of 1×10^6 cells/ml. 50 μl of drug were mixed with 50 μl of media in the first well of a 96 well micro titer plate. Serial, two-fold dilutions were then made by taking 50 μl of the solution in the first well and diluting it into the second well and this process was repeated through the 12 wells of an entire row of the 96 well plate. This gives a 2-fold difference in the concentration of the drug between the wells in that row. This procedure was repeated for all the inhibitors. 50 μl of Leishmania chagasi, at a cell density of 1×10^6 cells/ml, was then added to the wells. The micro titer plate was incubated at 30° C. under anaerobic conditions. Cells were counted under light microscope every 24 hours after addition of drugs.

NC[C@H]1O[C@H](O[C@H]2[C@H](O)[C@@H](O[C@H]3O[C@H](CO)[C@@H](O)[C@H](N)[C@H]3O)[C@H](N)C[C@@H]2N)[C@H](O)[C@@H](OP(=O)(O)O)[C@@H]1O [phosphokanamycin, 3′-phosphokanamycin]
effect on tumors (in words) ([1]; 50 μl of 1.3 mM into the tumor Mon/Wed/Fri for two weeks): tumor cells were killed; also recorded: Tumors regress in size and ultimately disappear
remote lesions (metastasis) after treatment ([1]; metastasis had occurred before treatment): no remote lesions are detected
longevity of treated mice ([1]; relative to untreated controls): significant longevity relative to the untreated controls
toxicity ([1]; treatments lasting as long as 8 weeks): no detectable toxicity
IC (100 (complete killing)) [2]: 200 µM
effect on DNA synthesis (in words) [3]: disrupted DNA synthesis
viability at 100 µM [4]: 109 ± 9%
killing of Leishmania cells (in words) [5]: clearly effective in killing the cells
